Values after ≈ are worked out from the molar mass of the structure shown. Where two headings read alike, the source gives them in different places. Residues, ends and D or L forms follow the SMILES beside them.
How the values were obtained:
[1] = system: L. monocytogenes; assay: microbe, parasite or virus in culture; details: for MIC: Listeria monocytogenes, ATCC19112, read-out: BMD MIC
Procedure, shortened: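 Broth microdilution in MHB, 2-fold 12-point series from 128 or 64 down to 0.06 or 0.03 μg mL^−1, 5 × 10^5 CFU mL^−1. Extra runs in CAMHB per CLSI and in MHB with 1% agarose; n ≥ 6.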

[2] = system: E. coli clinical isolates; assay: microbe, parasite or virus in culture
Procedure, shortened: (§1)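 MIC90 from CLSI broth microdilution (M07-A9) in two clinical-isolate panels. US panel (331 isolates, 2010-2012): AA139 diluted in 0.01% acetic acid/0.1% BSA. Worldwide panel (445 isolates, 2011-2013, four regions): CAMHB, with 0.002% Tween 80 added for AA139 and polymyxin B.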

[3] = system: K. pneumoniae clinical isolates; assay: microbe, parasite or virus in culture
Procedure, shortened: as §1

[4] = system: P. aeruginosa clinical isolates; assay: microbe, parasite or virus in culture
Procedure, shortened: as §1

[5] = SPR binding to model membrane lipids; design: species or system E. coli; details: for Binding to DMPC with lipid A versus DMPC alone (SPR): 1 µM and 10 µM, 100 × RU/MW at t = 180 s, n = 3, Student's t-test; for SPR response, Difference (Mean1 - Mean2): DMPC minus 10% lipid A-DMPC, multiple t-tests; for SPR response, Mean2 (10% lipid A-DMPC): mean of n = 3
Method: SPR experiments were performed on a Biacore T200 using an L1 sensor chip as previously described. Small unilamellar vesicles (SUVs) were prepared in PBS by sonication and extrusion. Lipids were dissolved in ethanol-free chloroform in 25 mL round-bottom flasks. 10% (mol/mol) of E. coli lipid A, diphosphoryl (Sigma-Aldrich, Cat # L5399) was added into 1,2-dimyristoyl-sn-glycero-3-phosphocholine (DMPC) (Auspep, Cat # 850345P) solution to make lipid A–DMPC mixtures, which were then deposited as a thin film by removal of the solvent (chloroform) under reduced pressure on a rotary evaporator and dried under high vacuum for at least 2 h. PBS was then added into each flask to give a 1 mM (DMPC) suspension, which was sonicated 5 min for five times. […] The SUVs were then injected into the flow cells of the L1 sensor chip for 2000 s at a low flow rate of 2 μL min^−1 to form a bilayer membrane model on the chip surface. Then, a series of peptide solutions (30–0.33 μM in 3-fold dilution), was injected across the flow cells at a flow rate of 30 μL min^−1, having an injection phase of 180 s, and a dissociation phase of 300 s. The binding responses (RU) were normalized by molecular weight (MW) of each peptide. The equation 100 × RU/MW was used for normalization.

[6] = system: E. coli; design: method as in Hasman H, et al. Euro. Surveill. (2015) 20:49; details: E. coli ESBL20150072, mcr-1 pos; ESBL; CAMHB; comparator antibiotics; ref Hasman H, et al. Euro. Surveill. (2015) 20:49; cited from earlier work
[7] = L. monocytogenes ATCC 19112, MHB, mode of 6 replicates
[8] = Worldwide isolates 2011-2013, E. coli n = 112
[9] = Worldwide isolates 2011-2013, K. pneumoniae n = 114
[10] = Worldwide isolates 2011-2013, P. aeruginosa n = 111
[11] = Escherichia coli, US isolates 2010–2012, E. coli MDR, n = 31
[12] = Escherichia coli, US isolates 2010–2012, E. coli Non-MDR, n = 24
[13] = Klebsiella pneumoniae, US isolates 2010–2012, K. pneumoniae Non-MDR, n = 24
[14] = Klebsiella pneumoniae, US isolates 2010–2012, K. pneumoniae XDR, n = 55
[15] = Pseudomonas aeruginosa, US isolates 2010–2012, P. aeruginosa Non-MDR, n = 41
[16] = Pseudomonas aeruginosa, US isolates 2010–2012, P. aeruginosa XDR, n = 37

## CC(C)[C@@H]1NC(=O)[C@H](Cc2ccc(O)cc2)NC(=O)[C@H](Cc2c[nH]c3ccccc23)NC(=O)[C@@H](NC(=O)[C@H](Cc2ccccc2)NC(=O)CN)CSSC[C@@H](C(=O)N[C@@H](CC(N)=O)C(=O)O)NC(=O)[C@H](CCCNC(=N)N)NC(=O)[C@H](CCCNC(=N)N)NC(=O)[C@H](Cc2ccc(O)cc2)NC(=O)[C@@H]2CSSC[C@H](NC1=O)C(=O)N[C@@H](C)C(=O)N[C@@H](CCCNC(=N)N)C(=O)N[C@@H](CCCNC(=N)N)C(=O)N[C@@H](CC(N)=O)C(=O)NCC(=O)N[C@@H](C)C(=O)N[C@@H](CCCNC(=N)N)C(=O)N[C@@H](C(C)C)C(=O)N2 [AA139] (HELM PEPTIDE1{G.F.C.W.Y.V.C.A.R.R.N.G.A.R.V.C.Y.R.R.C.N}$PEPTIDE1,PEPTIDE1,3:R3-20:R3|PEPTIDE1,PEPTIDE1,7:R3-16:R3$$$V2.0)
[1]
  BMD MIC: 2 µg/mL
[2]; E. coli with a colistin MIC of 4 to 16 μg mL^−1, US panel
  MIC against colistin-resistant isolates (did not surpass): ≤ 0.5 µg/mL
[2]; US isolates 2010–2012, E. coli MDR, n = 31
  MIC90: 0.5 µg/mL (≈ 0.196 µM)
[2]; Worldwide isolates 2011–2013, E. coli incl. non-MDR, MDR, XDR, n = 112
  MIC90: 0.5 µg/mL (≈ 0.196 µM)
[2]; clinical isolates
  MIC90 (E. coli): 1.0 µg/mL (≈ 0.392 µM)
[3]; US isolates 2010–2012, K. pneumoniae Non-MDR, n = 24
  MIC90: 4 µg/mL (≈ 1.57 µM)
[3]; Worldwide isolates 2011–2013, K. pneumoniae incl. non-MDR, MDR, XDR, n = 114
  MIC90: 4 µg/mL (≈ 1.57 µM)
[3]; all but two K. pneumoniae isolates with a colistin MIC of 8–≥32 μg mL^−1, US panel
  MIC against colistin-resistant isolates (did not surpass): ≤ 4 µg/mL
[4]; P. aeruginosa with a colistin MIC of >32 μg mL^−1, US panel
  MIC against colistin-resistant isolates (did not surpass): ≤ 8 µg/mL
[4]; US isolates 2010–2012, P. aeruginosa Non-MDR, n = 41
  MIC90: 8 µg/mL (≈ 3.14 µM)
[4]; US isolates 2010–2012, P. aeruginosa XDR, n = 37
  MIC90: 4 µg/mL (≈ 1.57 µM)
[4]; Worldwide isolates 2011–2013, P. aeruginosa incl. non-MDR, MDR, XDR, n = 111
  MIC90: 8 µg/mL (≈ 3.14 µM)
[4]; clinical isolates
  MIC90 (P. aeruginosa): 8.0 µg/mL (≈ 3.14 µM)

## polymyxin B [PolymyxinB, reference compound]
[1]; [7]
  BMD MIC: 4 µg/mL
[2]; [8]
  MIC50: 0.03 µg/mL
  MIC90: 0.03 µg/mL
[3]; [9]
  MIC50: 0.03 µg/mL
  MIC90: 0.06 µg/mL
[4]; [10]
  MIC50: 0.12 µg/mL
  MIC90: 0.25 µg/mL
[5]
  Binding to DMPC with lipid A versus DMPC alone (SPR): Significant difference
[5]; 1uM
  SPR response, Difference (Mean1 - Mean2): -20.0727
  SPR response, Mean2 (10% lipid A-DMPC): 48.41
[5]; 10uM
  SPR response, Difference (Mean1 - Mean2): -95.8227
  SPR response, Mean2 (10% lipid A-DMPC): 222.033
[6]
  BMD MIC: 4 µg/mL

## CNC(C)C1CCC(N)C(OC2C(N)CC(N)C(OC3OCC(C)(O)C(NC)C3O)C2O)O1 (centres unmarked) [Gentamicin, gentamicin, reference compound]
[1]
  MIC: 0.125 µg/mL (≈ 0.262 µM)
[2]; Escherichia coli
  MIC90: 32 µg/mL (≈ 67 µM)
[2]; [11]
  MIC90: > 32 µg/mL
[2]; [12]
  MIC90: 8 µg/mL (≈ 16.8 µM)
[2]; [8]
  MIC50: 0.5 µg/mL (≈ 1.05 µM)
  MIC90: 32 µg/mL (≈ 67 µM)
[3]; [13]
  MIC90: 8 µg/mL (≈ 16.8 µM)
[3]; [14]
  MIC90: > 32 µg/mL
[3]; [9]
  MIC50: 0.5 µg/mL (≈ 1.05 µM)
  MIC90: > 32 µg/mL
[4]; [15]
  MIC90: > 32 µg/mL
[4]; [16]
  MIC90: > 32 µg/mL
[4]; [10]
  MIC50: 2 µg/mL (≈ 4.19 µM)
  MIC90: > 32 µg/mL
[6]
  BMD MIC: >8 µg/mL

## O=C(O)c1cn(C2CC2)c2cc(N3CCNCC3)c(F)cc2c1=O [Ciprofloxacin, ciprofloxacin]
[6]
  BMD MIC: >2 µg/mL

## colistin
[1]; [7]
  BMD MIC: 16 µg/mL
[5]
  Binding to DMPC with lipid A versus DMPC alone (SPR): Significant difference
[5]; 1uM
  SPR response, Difference (Mean1 - Mean2): -12.5563
  SPR response, Mean2 (10% lipid A-DMPC): 19.5933
[5]; 10uM
  SPR response, Difference (Mean1 - Mean2): -66.912
  SPR response, Mean2 (10% lipid A-DMPC): 125.433
[6]
  BMD MIC: >4 µg/mL

## C[C@H]1COc2c(N3CCN(C)CC3)c(F)cc3c(=O)c(C(=O)O)cn1c23 [LEV, levofloxacin, reference compound]
[2]; Escherichia coli
  MIC90: 16 µg/mL (≈ 44.3 µM)
[2]; [8]
  MIC50: 0.06 µg/mL (≈ 0.166 µM)
  MIC90: 16 µg/mL (≈ 44.3 µM)
[3]; Klebsiella pneumoniae
  MIC90: > 32 µg/mL
[3]; [9]
  MIC50: 0.25 µg/mL (≈ 0.692 µM)
  MIC90: > 32 µg/mL
[4]; Pseudomonas aeruginosa
  MIC90: > 32 µg/mL
[4]; [10]
  MIC90: > 32 µg/mL

## C[C@@H](O)[C@H]1C(=O)N2C(C(=O)O)=C(S[C@@H]3CN[C@H](C(=O)N(C)C)C3)[C@H](C)[C@H]12 [Meropenem, meropenem, reference compound]
[1]
  MIC: 0.5 µg/mL (≈ 1.3 µM)
[2]; [11]
  MIC90: 16 µg/mL (≈ 41.7 µM)
[2]; [12]
  MIC90: 0.03 µg/mL (≈ 0.0782 µM)
[2]; [8]
  MIC50: ≤ 0.015 µg/mL
  MIC90: 0.03 µg/mL (≈ 0.0782 µM)
[3]; [13]
  MIC90: 0.06 µg/mL (≈ 0.156 µM)
[3]; [14]
  MIC90: > 16 µg/mL
[3]; [9]
  MIC50: 0.03 µg/mL (≈ 0.0782 µM)
  MIC90: > 16 µg/mL
[4]; [15]
  MIC90: 16 µg/mL (≈ 41.7 µM)
[4]; [16]
  MIC90: > 16 µg/mL
[4]; [10]
  MIC50: 1 µg/mL (≈ 2.61 µM)
  MIC90: > 16 µg/mL
[6]
  BMD MIC: ≤1 µg/mL

Source: article PMC7311426, “An amphipathic peptide with antibiotic activity against multidrug-resistant Gram-negative bacteria” (Nature Communications, 2020)
